Assay results from the NIST ThermoML archive (doi:10.1016/j.tca.2015.03.020).

Settings: Rate of evaporation

CCn1cc[n+](C)c1.O=S(=O)([N-]S(=O)(=O)C(F)(F)F)C(F)(F)F
Liquid
Settings | vapor or sublimation pressure [kPa]
363.13 K | 1.75e-09
368.13 K | 2.95e-09
373.13 K | 4.91e-09
378.13 K | 8.06e-09
383.13 K | 1.31e-08
388.13 K | 2.09e-08
393.13 K | 3.31e-08
398.13 K | 5.18e-08
403.13 K | 8.01e-08
408.13 K | 1.23e-07
413.13 K | 1.86e-07
418.13 K | 2.78e-07
423.13 K | 4.14e-07
428.13 K | 6.09e-07
433.13 K | 8.88e-07
438.13 K | 1.28e-06
443.13 K | 1.84e-06
448.13 K | 2.62e-06
453.13 K | 3.7e-06
458.13 K | 5.18e-06
463.13 K | 7.2e-06
468.13 K | 9.95e-06
473.13 K | 1.36e-05
538.13 K | 0.00129
543.13 K | 0.00168
548.13 K | 0.00216
553.13 K | 0.00277
558.13 K | 0.00355
563.13 K | 0.00451
568.13 K | 0.00572
573.13 K | 0.00722
578.13 K | 0.00907
583.13 K | 0.0114
588.13 K | 0.0142
593.13 K | 0.0176
598.13 K | 0.0218
603.13 K | 0.0269
608.13 K | 0.0331
613.13 K | 0.0405
618.13 K | 0.0495
623.13 K | 0.0602
628.13 K | 0.0731
633.13 K | 0.0885
638.13 K | 0.107
643.13 K | 0.128
648.13 K | 0.154
653.13 K | 0.184
658.13 K | 0.22
663.13 K | 0.261
668.13 K | 0.31
673.13 K | 0.367
678.13 K | 0.433
683.13 K | 0.51
688.13 K | 0.599
693.13 K | 0.703
698.13 K | 0.822
703.13 K | 0.959
708.13 K | 1.12
713.13 K | 1.3
718.13 K | 1.5
723.13 K | 1.74

CCn1cc[n+](C)c1.COS(=O)(=O)[O-] [1-ethyl-3-methylimidazolium methylsulfate]
Liquid
Settings | vapor or sublimation pressure [kPa]
408.15 K | 6.75e-09
410.15 K | 8.27e-09
413.15 K | 1.12e-08
416.15 K | 1.5e-08
420.15 K | 2.21e-08
424.15 K | 3.24e-08
428.15 K | 4.7e-08
432.15 K | 6.79e-08
436.15 K | 9.72e-08
440.15 K | 1.38e-07
444.15 K | 1.96e-07
448.15 K | 2.75e-07

c1ccc2cc3ccccc3cc2c1 [anthracene]
Crystal
Settings | vapor or sublimation pressure [kPa]
284.15 K | 1.79e-07
289.15 K | 3.52e-07
294.15 K | 6.77e-07
299.15 K | 1.27e-06
304.15 K | 2.35e-06
309.15 K | 4.25e-06
314.15 K | 7.54e-06
319.15 K | 1.31e-05
324.15 K | 2.25e-05
329.15 K | 3.79e-05
334.15 K | 6.29e-05
339.15 K | 0.000103
344.15 K | 0.000166
349.15 K | 0.000263
354.15 K | 0.000413
359.15 K | 0.00064
364.15 K | 0.000979
369.15 K | 0.00148
374.15 K | 0.00222
379.15 K | 0.00328
384.15 K | 0.00481
389.15 K | 0.00698
394.15 K | 0.01
399.15 K | 0.0143
404.15 K | 0.0202
409.15 K | 0.0283
414.15 K | 0.0393
419.15 K | 0.0541
424.15 K | 0.0741
429.15 K | 0.101
434.15 K | 0.136
439.15 K | 0.182
444.15 K | 0.242
449.15 K | 0.319
454.15 K | 0.42
459.15 K | 0.548
464.15 K | 0.712
469.15 K | 0.919
474.15 K | 1.18
479.15 K | 1.51
484.15 K | 1.92
489.15 K | 2.42
494.15 K | 3.05
499.15 K | 3.83
504.15 K | 4.77
509.15 K | 5.93

CCCCCCCCCCCC [dodecane]
Liquid
Settings | vapor or sublimation pressure [kPa]
284.15 K | 0.00421
289.15 K | 0.00646
294.15 K | 0.00978
299.15 K | 0.0146
304.15 K | 0.0215
309.15 K | 0.0312
314.15 K | 0.0449
319.15 K | 0.0638
324.15 K | 0.0897
329.15 K | 0.125
334.15 K | 0.172
339.15 K | 0.234
344.15 K | 0.317
349.15 K | 0.425
354.15 K | 0.565
359.15 K | 0.746
364.15 K | 0.976
369.15 K | 1.27
374.15 K | 1.64
379.15 K | 2.1
384.15 K | 2.67
389.15 K | 3.38
394.15 K | 4.25
399.15 K | 5.32
404.15 K | 6.62
409.15 K | 8.19
414.15 K | 10.1
419.15 K | 12.4
424.15 K | 15.1
429.15 K | 18.3
434.15 K | 22.1
439.15 K | 26.6
444.15 K | 31.8
449.15 K | 38
454.15 K | 45.1
459.15 K | 53.4
464.15 K | 63
469.15 K | 74.1
474.15 K | 86.8
479.15 K | 101
484.15 K | 118
489.15 K | 137
494.15 K | 158
499.15 K | 183
504.15 K | 210
509.15 K | 241

CCCCCCCCCCCCCCCC [hexadecane]
Liquid
Settings | vapor or sublimation pressure [kPa]
284.15 K | 6.01e-05
289.15 K | 0.000102
294.15 K | 0.000168
299.15 K | 0.000274
304.15 K | 0.00044
309.15 K | 0.000696
314.15 K | 0.00108
319.15 K | 0.00166
324.15 K | 0.00252
329.15 K | 0.00377
334.15 K | 0.00558
339.15 K | 0.00816
344.15 K | 0.0118
349.15 K | 0.0169
354.15 K | 0.0239
359.15 K | 0.0335
364.15 K | 0.0465
369.15 K | 0.0641
374.15 K | 0.0875
379.15 K | 0.119
384.15 K | 0.159
389.15 K | 0.212
394.15 K | 0.281
399.15 K | 0.369
404.15 K | 0.482
409.15 K | 0.626
414.15 K | 0.806
419.15 K | 1.03
424.15 K | 1.32
429.15 K | 1.67
434.15 K | 2.1
439.15 K | 2.63
444.15 K | 3.28
449.15 K | 4.07
454.15 K | 5.02
459.15 K | 6.18
464.15 K | 7.56
469.15 K | 9.21
474.15 K | 11.2
479.15 K | 13.5
484.15 K | 16.3
489.15 K | 19.5
494.15 K | 23.3
499.15 K | 27.7
504.15 K | 32.9
509.15 K | 38.9
